Results: ChEMBL document CHEMBL3352457 (Bioorg Med Chem Lett, 2015)
Active and inactive are the calls of the source. The calls are words filed in the database; no cut-off is given here.

Tests used:
[1] = target: Neurotensin receptor type 1 (Rattus norvegicus) (UniProt P20789); assay: Antagonist activity at rat neurotensin receptor type 1 expressed in CHOK1 cells assessed as inhibition of calcium release at 10 uM by FLIPR assay; assay type: functional, cell-based; settings: CHO-K1
[2] = target: T1, Neurotensin receptor type 2 (Rattus norvegicus) (UniProt Q63384); assay: Agonist activity at rat neurotensin receptor type 2 expressed in CHOK1 cells assessed as increase in calcium release at 10 uM by FLIPR assay; assay type: functional, cell-based; settings: CHO-K1
T1 sequence (whole entry): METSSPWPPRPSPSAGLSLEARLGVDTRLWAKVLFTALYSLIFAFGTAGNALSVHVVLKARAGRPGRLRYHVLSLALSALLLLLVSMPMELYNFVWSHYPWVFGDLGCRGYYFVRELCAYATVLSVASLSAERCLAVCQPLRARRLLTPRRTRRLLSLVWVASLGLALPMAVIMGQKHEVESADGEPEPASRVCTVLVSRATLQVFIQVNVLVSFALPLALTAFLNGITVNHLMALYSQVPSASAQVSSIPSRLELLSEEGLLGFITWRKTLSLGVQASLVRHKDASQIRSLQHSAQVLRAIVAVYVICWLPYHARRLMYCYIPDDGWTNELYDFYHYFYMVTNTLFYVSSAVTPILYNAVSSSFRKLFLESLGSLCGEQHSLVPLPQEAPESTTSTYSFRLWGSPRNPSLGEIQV

[3] = target: T1, Neurotensin receptor type 2 (Rattus norvegicus); assay: Antagonist activity at rat neurotensin receptor type 2 expressed in CHOK1 cells assessed as inhibition of SR142948a-induced calcium release at 10 uM by FLIPR assay; assay type: functional, cell-based; settings: CHO-K1
[4] = target: Neurotensin receptor type 1 (Rattus norvegicus) (UniProt P20789); assay: Agonist activity at rat neurotensin receptor type 1 expressed in CHOK1 cells assessed as increase in calcium release at 10 uM by FLIPR assay; assay type: functional, cell-based; settings: CHO-K1
[5] = target: Neurotensin receptor type 1 (Rattus norvegicus) (UniProt P20789); assay: Agonist activity at rat neurotensin receptor type 1 expressed in CHOK1 cells assessed as increase in calcium release by FLIPR assay; assay type: functional, cell-based; settings: CHO-K1
[6] = target: T2, Neurotensin receptor type 2 (Rattus norvegicus, UniProt Q63384); assay: Displacement of [[…]]NT from rat neurotensin receptor type 2 expressed in CHOK1 cells by radioligand binding assay; assay type: cell-based, CHO-K1
T2 sequence (Q63384 whole entry): T1 sequence (whole entry)

[7] = target: T2, Neurotensin receptor type 2; assay: Agonist activity at rat neurotensin receptor type 2 expressed in CHOK1 cells assessed as increase in calcium release by FLIPR assay; assay type: functional, cell-based, CHO-K1
[8] = target: T1, Neurotensin receptor type 2 (Rattus norvegicus); assay: Agonist activity at rat neurotensin receptor type 2 expressed in CHOK1 cells assessed as increase in calcium release by FLIPR assay relative to SR142948a; assay type: functional, cell-based; settings: CHO-K1
[9] = target: T2, Neurotensin receptor type 2; assay: Antagonist activity at rat neurotensin receptor type 2 expressed in CHOK1 cells assessed as inhibition of SR142948a-induced calcium release by FLIPR assay; assay type: functional, cell-based, CHO-K1
[10] = target: Neurotensin receptor type 1 (Rattus norvegicus, UniProt P20789); assay: Displacement of [[…]]NT from rat neurotensin receptor type 1 expressed in CHOK1 cells by radioligand binding assay; assay type: cell-based, CHO-K1
Sequence of Neurotensin receptor type 1 (P20789 whole entry): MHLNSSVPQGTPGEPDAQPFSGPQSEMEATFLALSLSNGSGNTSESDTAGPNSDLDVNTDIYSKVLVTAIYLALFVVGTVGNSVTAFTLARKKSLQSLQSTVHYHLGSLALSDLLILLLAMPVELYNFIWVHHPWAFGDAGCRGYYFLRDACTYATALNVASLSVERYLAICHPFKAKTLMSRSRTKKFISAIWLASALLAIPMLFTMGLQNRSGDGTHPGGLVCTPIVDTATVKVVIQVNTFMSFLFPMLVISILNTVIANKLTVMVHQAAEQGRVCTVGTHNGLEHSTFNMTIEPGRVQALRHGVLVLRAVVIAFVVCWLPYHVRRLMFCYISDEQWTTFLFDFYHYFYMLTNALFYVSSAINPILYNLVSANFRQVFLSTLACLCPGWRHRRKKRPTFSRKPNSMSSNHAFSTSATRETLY

Sequence of Neurotensin receptor type 1 (Rattus norvegicus) (P20789 whole entry): as above

With O=C(O)c1cc(Nc2nc(-c3ccccc3)c3cc(Cl)ccc3n2)ccc1O the inhibition [1] was “inactive”, the Activity [2] was “inactive” and the inhibition [3] was 20%. The Activity [4] was “inactive”.
With COc1ccc(C(=O)N/C(=C\c2cccc([N+](=O)[O-])c2)C(=O)N[C@@H](CC(C)C)C(=O)O)cc1 the inhibition [1] was “inactive”, the Activity [2] was “inactive” and the inhibition [3] was “inactive”. For the same molecule, the Activity [4] was “inactive”.
O=C(O)c1ccc(NC(=S)NC(=O)C(c2ccccc2)c2ccccc2)cc1Cl was tested, and the inhibition [1] was “inactive”, the Activity [2] was “inactive” and the inhibition [3] was “inactive”. For the same molecule, the Activity [4] was “inactive”.
For COc1ccccc1C(=O)N/C(=C\c1ccc2c(c1)OCO2)C(=O)N[C@H](C(=O)O)C(C)C (stereo in doubt), the inhibition [1] was “inactive”, the Activity [2] was “inactive” and the inhibition [3] was “inactive”. For the same molecule, the Activity [4] was “inactive”.
In the case of COc1cccc(OC)c1-c1nc(C(=O)NC2(C(=O)O)CCCCC2)nc2ccc(Cl)cc12, the Activity [5] is reported as “inactive”, the Ki [6] is reported as 959 nM and the EC50 [7] is reported as 145 nM. It also gave an Emax [8] of 26%.
CC(C)[C@H](NC(=O)/C(=C/c1ccccc1)NC(=O)c1ccccc1)C(=O)O was tested, and the inhibition [1] was “inactive”, the Activity [2] was “inactive” and the inhibition [3] was “inactive”. The Activity [4] was “inactive”.
With Cc1ccc(C(=O)O)cc1NC(=S)NC(=O)C(c1ccccc1)c1ccccc1 the inhibition [1] was “inactive”, the Activity [2] was “inactive” and the inhibition [3] was “inactive”. The Activity [4] was “inactive”.
COc1cccc(OC)c1-c1nc(C(=O)N[C@H](C(=O)O)C2CCCCC2)nc2ccc(Cl)cc12 was tested, and the Activity [5] was “inactive”, the Ki [6] was 474 nM and the IC50 [9] was 1070 nM.
Cc1c(NC(=S)NC(=O)C(c2ccccc2)c2ccccc2)cccc1C(=O)O was tested, and the inhibition [1] was “inactive”, the Activity [2] was “inactive” and the inhibition [3] was “inactive”. For the same molecule, the Activity [4] was “inactive”.
COc1ccc(C(=O)O)cc1NC(=S)NC(=O)C(c1ccccc1)c1ccccc1 was tested, and the inhibition [1] was “inactive”, the Activity [2] was “inactive” and the inhibition [3] was “inactive”. The Activity [4] was “inactive”.
For O=C(O)c1cccc(NC(=S)NC(=O)C(c2ccccc2)c2ccccc2)c1, the inhibition [1] was “inactive”, the Activity [2] was “inactive” and the inhibition [3] was “inactive”. The Activity [4] was “inactive”.
O=C1NC(=O)N(c2ccc(C(=O)O)cc2)C(=O)/C1=C/c1c(OCc2ccccc2)ccc2ccccc12 was tested, and the inhibition [1] was “inactive”, the Activity [2] was “inactive” and the inhibition [3] was “inactive”. For the same molecule, the Activity [4] was “inactive”.
Work on COc1cccc(OC)c1-c1cc(C(=O)NC2(C(=O)O)C3CC4CC(C3)CC2C4)nn1-c1ccc(C(=O)N(C)CCCN(C)C)cc1C(C)C (centres undefined) yielded a Ki [6] of 7 nM, an EC50 [7] of 18 nM and a Ki [10] of 2 nM.
In the case of COc1ccc(C(=O)N/C(=C\c2ccccc2)C(=O)N[C@H](C(=O)O)C(C)C)cc1, the inhibition [1] is reported as “inactive”, the Activity [2] is reported as “inactive” and the inhibition [3] is reported as “inactive”. The Activity [4] was “inactive”.
